11 compounds from paper PMC3916150 (Journal of medicinal chemistry, 2013) can be followed below.

Read-outs that look alike come from different tables or passages of the source.

Experiment [1] has as its target T1, human RXR (Homo sapiens, UniProt P19793).
T1 sequence (P19793 1-462) 1: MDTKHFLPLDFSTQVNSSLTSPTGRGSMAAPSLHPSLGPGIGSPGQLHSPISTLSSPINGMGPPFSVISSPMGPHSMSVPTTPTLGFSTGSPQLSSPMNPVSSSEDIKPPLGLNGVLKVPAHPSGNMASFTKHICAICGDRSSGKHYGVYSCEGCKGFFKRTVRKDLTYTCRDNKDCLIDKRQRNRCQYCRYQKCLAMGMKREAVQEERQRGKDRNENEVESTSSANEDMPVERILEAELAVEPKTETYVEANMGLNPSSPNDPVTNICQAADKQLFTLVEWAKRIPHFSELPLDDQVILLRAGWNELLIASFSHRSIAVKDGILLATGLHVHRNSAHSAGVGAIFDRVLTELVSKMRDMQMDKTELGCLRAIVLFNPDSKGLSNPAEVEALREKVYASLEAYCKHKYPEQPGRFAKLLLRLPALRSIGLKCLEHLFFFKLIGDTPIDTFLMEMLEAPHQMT
T1 sequence (P19793 1-462) 2: T1 sequence (P19793 1-462) 1
Nature of the experiment: RXR mammalian two-hybrid. To be noted: for RXR-mediated transcriptional activity: data in Figures 4 and 5 (M2H and RXRE assays); for RXR binding and homodimerization (luciferase output) compared to compound 1: 24 h.

Experiment [2] has as its target T2, human RARα (Homo sapiens, UniProt P10276).
T2 sequence (P10276 1-462): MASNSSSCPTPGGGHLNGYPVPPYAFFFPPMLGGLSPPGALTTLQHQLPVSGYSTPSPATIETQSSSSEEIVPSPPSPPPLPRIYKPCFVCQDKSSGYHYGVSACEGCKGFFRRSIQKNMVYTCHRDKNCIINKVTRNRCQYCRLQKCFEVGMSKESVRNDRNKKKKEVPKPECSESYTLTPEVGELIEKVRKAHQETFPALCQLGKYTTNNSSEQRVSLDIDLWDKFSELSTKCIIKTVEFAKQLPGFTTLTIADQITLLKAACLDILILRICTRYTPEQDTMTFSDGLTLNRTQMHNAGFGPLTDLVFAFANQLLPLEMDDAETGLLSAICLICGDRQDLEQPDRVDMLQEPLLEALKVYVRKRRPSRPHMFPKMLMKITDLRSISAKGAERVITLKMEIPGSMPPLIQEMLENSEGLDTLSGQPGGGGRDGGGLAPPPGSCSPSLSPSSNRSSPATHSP
Put plainly: RAR/RARE-luciferase reporter assay in HCT-116 cells. To be noted: RARE-luciferase, versus all-trans retinoic acid.

For experiment [3], the system named is HuT-78 (human T-cell lymphoma) cells. Nature of the experiment: Caspase-Glo 3/7 apoptosis assay in CTCL cells. Type of experiment: cell-based. To be noted: 100 nM.
The subject of experiment [4] is VDR-RXR. To be noted: for inhibition of VDR activity compared with compound 1: both assays (10^-6 M and 10^-7 M), ER6 VDRE.
Experiment [5] addresses T3, human RXRα (Homo sapiens, UniProt P19793).
T3 sequence (P19793 1-462): T1 sequence (P19793 1-462) 1
Put plainly: RXRE-luciferase reporter transcription assay in HCT-116 cells. Type of experiment: cell-based. To be noted: 25 nM and 100 nM (both assays), HCT-116, Figure 5A and B.

The mark [6] stands for this setting: 1,000 nM analog + 1 nM 1,25D, Fig. 7B.
Setting [7] is: 100 nM analog + 1 nM 1,25D, Fig. 7A.
Where [8] appears, read: 100 nM analog + 1 nM 1,25D, Fig. 7C.
[9] abbreviates: 100 nM analog + 1 nM 1,25D, Fig. 7E.
Where [10] appears, read: 1,000 nM analog + 1 nM 1,25D, Fig. 7F.

Regarding `Cc1cc2c(cc1-c1cc(/C=C/C(=O)O)ccc1C(F)(F)F)C(C)(C)CCC2(C)C` [Compound 16, (E)-3-(4-(trifluoromethyl)-3-(1,2,3,4-tetrahydro-1,1,4,4,6-pentamethylnaphthalen-7-yl)phenyl)acrylic acid], the RXR-mediated transcriptional activity entry in experiment [1] is given as “consistently lower RXR-mediated transcriptional activity”. The “RAR agonist activity compared to bexarotene” value in experiment [2] is “slightly lower RAR-directed activity”. For the same compound, the “apoptosis compared to ethanol vehicle control” value in experiment [3] (24 hours) is on record as “greater than the ethanol vehicle control”. In addition, the “ER6 VDRE-mediated activity versus 1,25D alone” value in experiment [4] (setting [6]) is “significantly lower”.
For “Methyl 2-(1-(1,2,3,4-tetrahydro-1,1,4,4,6-pentamethylnaphthalen-7-yl)vinyl)pyridine-5-carboxylate [Compound 13]”, the “RAR agonist activity compared to bexarotene” value in experiment [2] is reported as “greater RAR agonist activity”. The “apoptosis compared to ethanol vehicle control” value in experiment [3] (24 hours) and in experiment [3] (48 hours) was “greater than the ethanol vehicle control” throughout. Moreover, in experiment [4] (setting [6]), the “ER6 VDRE-mediated activity versus 1,25D alone” value is listed as “significantly lower”. For the same compound, in experiment [4], the “inhibition of VDR activity compared with compound 1” value is “inhibited VDR activity less”.
`Cc1cc2c(cc1C1(c3ccc(C(=O)O)cn3)CC1)C(C)(C)CCC2(C)C` [Compound 9, 6-[1-(3,5,5,8,8-Pentamethyl-5,6,7,8-tetrahydronaphthalen-2-yl)cyclopropyl]nicotinic Acid, reference compound]: the “apoptosis compared to ethanol vehicle control” value in experiment [3] (24 hours) and in experiment [3] (48 hours) was “greater than the ethanol vehicle control” in each case. In addition, the “ER6 VDRE-mediated activity versus 1,25D alone” value in experiment [4] (setting [7]) and in experiment [4] (setting [6]) was “significantly lower” each time.
As to `Cc1cc2c(cc1-c1cccc(/C=C/C(=O)O)c1)C(C)(C)CCC2(C)C` [Compound 12, (E)-3-(3-(1,2,3,4-tetrahydro-1,1,4,4,6-pentamethylnaphthalen-7-yl)phenyl)acrylic acid, reference compound], the RXR-mediated transcriptional activity entry in experiment [1] is “consistently lower RXR-mediated transcriptional activity”. Besides, the “RAR agonist activity compared to bexarotene” value in experiment [2] is “slightly lower RAR-directed activity”. Besides, in experiment [3] (24 hours), the “apoptosis compared to ethanol vehicle control” value is on record as “greater than the ethanol vehicle control”. Further, in experiment [4] (setting [8]), the “DR3 VDRE-mediated activity versus 1,25D alone” value is “significantly lower”. The “CYP24 natural promoter 1,25D-VDR transactivation versus 1,25D alone” value in experiment [4] (setting [9]) and in experiment [4] (setting [10]) was “significant inhibiton” throughout. Moreover, the “ER6 VDRE-mediated activity versus 1,25D alone” value in experiment [4] (setting [6]) is given as “significantly lower”.
Take `Cc1ccc(/C=C/C(=O)O)cc1-c1cc2c(cc1C)C(C)(C)CCC2(C)C` [Compound 15, (E)-3-(3-(1,2,3,4-tetrahydro-1,1,4,4,6-pentamethylnaphthalen-7-yl)-4-methylphenyl)acrylic acid]: the “RXR binding and homodimerization (luciferase output) compared to compound 1” value in experiment [1] (25 nM, HCT-116, Figure 4A) was “greater activity than compound 1”; in experiment [1] (100 nM, HCT-116, Figure 4B), “high activity compared with compound 1”. Besides, in experiment [1], the RXR-mediated transcriptional activity entry is listed as “consistently more active”. Besides, the “RAR agonist activity compared to bexarotene” value in experiment [2] is listed as “greater RAR agonist activity”. The “ER6 VDRE-mediated activity versus 1,25D alone” value in experiment [4] (setting [7]) and in experiment [4] (setting [6]) was “significantly lower” in each case. Moreover, the “DR3 VDRE-mediated activity versus 1,25D alone” value in experiment [4] (1,000 nM analog + 1 nM 1,25D, Fig. 7D) is given as “significantly higher”.
As for `C=C(c1ccc(C(=O)O)cc1)c1cc2c(cc1C)C(C)(C)C=CC2(C)C` [Compound 10, 4-[1-(3,5,5,8,8-Pentamethyl-2–5,8-dihydronaphthyl)vinyl]benzoic Acid, reference compound], in experiment [2], the “RAR agonist activity compared to bexarotene” value was “greater RAR agonist activity”. Also, the “RXRE-mediated transcriptional activity compared to compound 1” value in experiment [5] is “transcriptional activity consistently above the compound 1 level”. The “apoptosis compared to ethanol vehicle control” value in experiment [3] (24 hours) was “greater than the ethanol vehicle control”. The “inhibition of VDR activity compared with compound 1” value in experiment [4] was “inhibited VDR activity less”.
As for `Cc1cc2c(cc1-c1cc(/C=C/C(=O)O)ccc1O)C(C)(C)CCC2(C)C` [Compound 11, (E)-3-(3-(1,2,3,4-tetrahydro-1,1,4,4,6-pentamethylnaphthalen-7-yl)-4-hydroxyphenyl)acrylic acid, reference compound], the “RXR binding and homodimerization (luciferase output) compared to compound 1” value was “greater activity than compound 1” in experiment [1] (25 nM, HCT-116, Figure 4A) and “high activity compared with compound 1” in experiment [1] (100 nM, HCT-116, Figure 4B). For the same compound, the RXR-mediated transcriptional activity entry in experiment [1] is reported as “consistently more active”. For the same compound, in experiment [2], the “RAR agonist activity compared to bexarotene” value is recorded as “slightly lower RAR-directed activity”. In addition, the “ER6 VDRE-mediated activity versus 1,25D alone” value in experiment [4] (setting [7]) and in experiment [4] (setting [6]) was “significantly lower” in each case.
Consider `Cc1ccc(/C=C/C(=O)O)cc1-c1cc2c(cc1C)C(C)(C)C=CC2(C)C` [Compound 17, (2E)-3-(3-(1,4-dihydro-1,1,4,4,6-pentamethylnaphthalen-7-yl)-4-methylphenyl)acrylic acid], for which the RXR-mediated transcriptional activity entry in experiment [1] is given as “consistently lower RXR-mediated transcriptional activity”. Further, the “RAR agonist activity compared to bexarotene” value in experiment [2] was “greater RAR agonist activity”. The “apoptosis compared to ethanol vehicle control” value in experiment [3] (24 hours) and in experiment [3] (48 hours) was “greater than the ethanol vehicle control” in each case. Besides, the “DR3 VDRE-mediated activity versus 1,25D alone” value in experiment [4] (setting [8]) was “significantly lower”. Moreover, the “ER6 VDRE-mediated activity versus 1,25D alone” value in experiment [4] (setting [6]) was “significantly lower”. The “inhibition of VDR activity compared with compound 1” value in experiment [4] is recorded as “inhibited VDR activity less”.
Regarding `Cc1cc2c(cc1C1(c3ncc(C(=O)O)cn3)CC1)C(C)(C)CCC2(C)C` [Compound 14], the “RAR agonist activity compared to bexarotene” value in experiment [2] is “greater RAR agonist activity”. In addition, the “apoptosis compared to ethanol vehicle control” value in experiment [3] (24 hours) and in experiment [3] (48 hours) was “greater than the ethanol vehicle control” throughout. Also, the “ER6 VDRE-mediated activity versus 1,25D alone” value in experiment [4] (setting [6]) was “significantly lower”. The “inhibition of VDR activity compared with compound 1” value in experiment [4] is “inhibited VDR activity less”.
For the compound `Cc1cc2c(cc1-c1cc(/C=C/C(=O)O)ccc1O)C(C)(C)C=CC2(C)C` [Compound 18, (2E)-3-(3-(1,4-dihydro-1,1,4,4,6-pentamethylnaphthalen-7-yl)-4-hydroxyphenyl)acrylic acid], the “RXR binding and homodimerization (luciferase output) compared to compound 1” value in experiment [1] (25 nM, HCT-116, Figure 4A) is “approaching statistical significance”. The RXR-mediated transcriptional activity entry in experiment [1] is on record as “consistently more active”. Besides, in experiment [2], the “RAR agonist activity compared to bexarotene” value is listed as “approximately equal to bexarotene”. Further, the “apoptosis compared to ethanol vehicle control” value in experiment [3] (24 hours) and in experiment [3] (48 hours) was “greater than the ethanol vehicle control” each time. In addition, the “CYP24 natural promoter 1,25D-VDR transactivation versus 1,25D alone” value in experiment [4] (setting [9]) and in experiment [4] (setting [10]) was “significant inhibiton” throughout. Further, in experiment [4] (setting [6]), the “ER6 VDRE-mediated activity versus 1,25D alone” value is given as “significantly lower”.
In the case of `C=C(c1ccc(C(=O)O)c(F)c1)c1cc2c(cc1C)C(C)(C)C=CC2(C)C` [Compound 19, 2-Fluoro-4-(1-(1,4-dihydro-1,1,4,4,6-pentamethylnaphthalen-7-yl)vinyl)benzoic acid], in experiment [1], the RXR-mediated transcriptional activity entry was “consistently lower RXR-mediated transcriptional activity”. The “RAR agonist activity compared to bexarotene” value in experiment [2] was “greater RAR agonist activity”. The “apoptosis compared to ethanol vehicle control” value in experiment [3] (24 hours) and in experiment [3] (48 hours) was “greater than the ethanol vehicle control” in each case. Also, the “CYP24 natural promoter 1,25D-VDR transactivation versus 1,25D alone” value in experiment [4] (setting [9]) is listed as “significant inhibiton”. In addition, the “ER6 VDRE-mediated activity versus 1,25D alone” value in experiment [4] (setting [6]) is recorded as “significantly lower”.
